Data on 29 compounds can be found in patent US20060194837A1, “Tetrahydroisoquinoline compounds” (priority 2004, published 2006).

The target in one assay is T1, human H3 receptor (Homo sapiens, UniProt Q9Y5N1).
T1 construct: expressed in transfected cells
The assay is described as follows: H3 receptor binding (N-[3H]-α-methylhistamine displacement). The following applies: membranes of SK-N-MC cells expressing cloned human H3 receptor, 0.8 nM N-[3H]-α-methylhistamine, 60 min at 25° C.

The target of another assay is T2, Rat SERT (Rattus norvegicus, UniProt P31652).
T2 construct: A rat brain without cerebellum (Zivic Laboratories, Inc.—Pittsburgh, Pa.) was homogenized; tissue Zivic Laboratories, Inc; host or cells: rat brain without cerebellum, membranes
The assay is described as follows: Rat brain SERT binding ([3H]-citalopram displacement). Particulars: rat brain membranes without cerebellum, 0.6 nM [3H]-citalopram, 60 min at 25° C.; read-out: Rat SERT Ki. As to the method:
The supernatant was removed and re-centrifuged at 15,000 rpm for 30 min. […] Membranes were incubated with 0.6 nM [^3H]-Citalopram plus/minus test compounds for 60 min at 25° C. and harvested by rapid filtration over GF/C glass fiber filters (pretreated with 0.3% polyethylenimine) followed by four washes with ice-cold buffer.

Structures are written as SMILES. pKi: −log10 of the molar value.

T2 sequence (P31652 whole entry): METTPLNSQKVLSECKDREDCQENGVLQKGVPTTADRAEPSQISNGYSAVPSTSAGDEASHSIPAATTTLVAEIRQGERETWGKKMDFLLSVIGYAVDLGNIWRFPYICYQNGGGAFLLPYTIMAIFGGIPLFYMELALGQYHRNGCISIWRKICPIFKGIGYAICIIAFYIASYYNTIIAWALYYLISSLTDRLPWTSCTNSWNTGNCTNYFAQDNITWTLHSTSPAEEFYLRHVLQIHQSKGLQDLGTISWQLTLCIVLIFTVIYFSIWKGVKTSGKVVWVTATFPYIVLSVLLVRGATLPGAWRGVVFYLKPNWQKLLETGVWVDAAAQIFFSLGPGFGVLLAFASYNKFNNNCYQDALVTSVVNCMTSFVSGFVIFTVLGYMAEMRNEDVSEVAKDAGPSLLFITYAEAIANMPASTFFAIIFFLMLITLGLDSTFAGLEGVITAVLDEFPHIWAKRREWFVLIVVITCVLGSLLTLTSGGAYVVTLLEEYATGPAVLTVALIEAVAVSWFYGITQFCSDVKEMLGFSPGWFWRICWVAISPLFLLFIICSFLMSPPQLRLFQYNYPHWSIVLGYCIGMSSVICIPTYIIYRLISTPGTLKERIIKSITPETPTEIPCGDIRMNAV
T1 sequence (Q9Y5N1 whole entry): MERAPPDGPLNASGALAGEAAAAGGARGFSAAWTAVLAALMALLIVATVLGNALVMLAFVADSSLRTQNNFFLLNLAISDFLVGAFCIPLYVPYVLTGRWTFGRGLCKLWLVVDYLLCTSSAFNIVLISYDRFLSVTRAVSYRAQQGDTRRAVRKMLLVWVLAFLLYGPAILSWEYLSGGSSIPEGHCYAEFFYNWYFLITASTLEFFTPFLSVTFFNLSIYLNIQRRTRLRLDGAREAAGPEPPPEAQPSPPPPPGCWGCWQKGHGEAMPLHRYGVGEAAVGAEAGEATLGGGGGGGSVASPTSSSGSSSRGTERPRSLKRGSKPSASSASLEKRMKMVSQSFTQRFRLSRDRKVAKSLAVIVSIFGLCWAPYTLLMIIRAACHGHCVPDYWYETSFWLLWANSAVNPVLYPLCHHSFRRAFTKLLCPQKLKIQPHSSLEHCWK

For the compound `CSc1ccc(C2CN(C)Cc3cc(OC4CCN(CCC(F)(F)F)CC4)ccc32)cc1` (stereo not shown) [Example 244, 2-Methyl-4-(4-methylsulfanyl-phenyl)-7-[1-(3,3,3-trifluoro-propyl)-piperidin-4-yloxy]-1,2,3,4-tetrahydro-isoquinoline], the values for the pKi at human H3 receptor and on Rat SERT were 6.89 and 8.15, respectively.
In the case of `COc1cccc(C2CN(C)Cc3cc(OCC4CCN(C5CCCC5)CC4)ccc32)c1` (stereo not shown) [Example 94, 7-(1-Cyclopentyl-piperidin-4-ylmethoxy)-4-(3-methoxy-phenyl)-2-methyl-1,2,3,4-tetrahydro-isoquinoline], the pKi on human H3 receptor was 8.40; at Rat SERT, 7.82.
As to `CSc1ccc(C2CN(C)Cc3cc(OCC4CNCCO4)ccc32)cc1` (mixture of isomers) [Example 264, 2-Methyl-4-(4-methylsulfanyl-phenyl)-7-(morpholin-2-ylmethoxy)-1,2,3,4-tetrahydro-isoquinoline], the results for the negative-log Ki (pKi) at human H3 receptor and on Rat SERT were 5.49 and 8.22, respectively.
The corresponding values for `COc1ccc(C2CN(C)Cc3cc(OCCCN4CCOC[C@@H]4CO)ccc32)cc1` (mixture of isomers) [Example 183A, (4-{3-[4-(4-Methoxy-phenyl)-2-methyl-1,2,3,4-tetrahydro-isoquinolin-7-yloxy)-propyl}-morpholin-3S-yl)-methanol] are 8.22 and 9.00.
For `COc1ccc(C2CN(C)Cc3cc(OCCCN4CC(F)(F)C4)ccc32)cc1` (stereo not shown) [Example 182, 7-[3-(3,3-Difluoro-azetidin-1-yl)-propoxy]-4-(4-methoxy-phenyl)-2-methyl-1,2,3,4-tetrahydro-isoquinoline], the pKi at human H3 receptor was 7.23; on Rat SERT, 8.70.
As for `COc1ccc(C2CN(C)Cc3cc(OCC4CCNCC4)ccc32)cc1F` (stereo not shown) [Example 81, 4-(3-Fluoro-4-methoxy-phenyl)-2-methyl-7-(piperidin-4-ylmethoxy)-1,2,3,4-tetrahydro-isoquinoline], the figures for the pKi at human H3 receptor and at Rat SERT were 7.15 and 9.00, respectively.
Consider `CN1Cc2cc(OCCCN3CCC(F)CC3)ccc2C(c2ccccc2Cl)C1` (stereo not shown) [Example 132, 4-(2-Chloro-phenyl)-7-[3-(4-fluoro-piperidin-1-yl)-propoxy]-2-methyl-1,2,3,4-tetrahydro-isoquinoline], for which the pKi on human H3 receptor is 8.40; at Rat SERT, 7.72.
In the case of `CCCN1CCC(COc2ccc3c(c2)CN(C)CC3c2ccc(OC)cc2F)CC1` (stereo not shown) [Example 114, 4-(2-Fluoro-4-methoxy-phenyl)-2-methyl-7-(1-propyl-piperidin-4-ylmethoxy)-1,2,3,4-tetrahydro-isoquinoline], the results for the pKi at human H3 receptor and on Rat SERT were 8.40 and 8.05, respectively.
On to `COc1ccc(C2CN(C)Cc3cc(OCCCN4C=NCCC4)ccc32)cc1` (stereo not shown) [Example 18, 7-[3-(5,6-Dihydro-4H-pyrimidin-1-yl)-propoxy]-4-(4-methoxy-phenyl)-2-methyl-1,2,3,4-tetrahydro-isoquinoline], for which the pKi is 7.13 on human H3 receptor and 9.00 on Rat SERT.
For `COc1ccc(C2CN(C)Cc3cc(OCC4CCN(C5CC5)CC4)ccc32)cc1` (stereo not shown) [Example 249, 7-(1-Cyclopropyl-piperidin-4-ylmethoxy)-4-(4-methoxy-phenyl)-2-methyl-1,2,3,4-tetrahydro-isoquinoline], the values for the pKi at human H3 receptor and on Rat SERT were 8.40 and 8.22, respectively.
For `COc1ccc(C2CN(C)Cc3cc(OCCCN4CCOCC4)c(C)cc32)cc1` (stereo not shown) [Example 266, 4-(4-Methoxy-phenyl)-2,6-dimethyl-7-(3-morpholin-4-yl-propoxy)-1,2,3,4-tetrahydro-isoquinoline], the pKi was 7.85 on human H3 receptor and 7.51 at Rat SERT.
The corresponding values for `COc1ccc(C2CN(C)Cc3cc(OCC4CCN(CC(C)(C)O)CC4)ccc32)cc1` (stereo not shown) [Example 250, 1-{4-[4-(4-Methoxy-phenyl)-2-methyl-1,2,3,4-tetrahydro-isoquinolin-7-yloxymethyl]-piperidin-1-yl}-2-methyl-propan-2-ol] are 7.47 and 8.40.
Turning to `CN1Cc2cc(OCCCN3CCC(F)CC3)ccc2C(c2ccccc2F)C1` (stereo not shown) [Example 125, 4-(2-Fluoro-phenyl)-7-[3-(4-fluoro-piperidin-1-yl)-propoxy]-2-methyl-1,2,3,4-tetrahydro-isoquinoline], the values for the pKi at human H3 receptor and at Rat SERT were 8.70 and 7.35, respectively.
In the case of `COc1ccc(C2CN(C)Cc3cc(OCCCN4CCN(c5nccs5)CC4)ccc32)cc1` (stereo not shown) [Example 200, 4-(4-Methoxy-phenyl)-2-methyl-7-[3-(4-thiazol-2-yl-piperazin-1-yl)-propoxy]-1,2,3,4-tetrahydro-isoquinoline], the pKi is 6.64 at human H3 receptor and 8.52 at Rat SERT.
Take `COc1ccc(C2CN(C)Cc3cc(OC[C@H]4CN(C5CC5)CCO4)ccc32)cc1` (single isomer, unassigned) [Example 261A, 7-(4-Cyclopropyl-morpholin-2R-ylmethoxy)-4-(4-methoxy-phenyl)-2-methyl-1,2,3,4-tetrahydro-isoquinoline]: the values for the pKi at human H3 receptor and at Rat SERT were 7.14 and 7.49, respectively.
The corresponding values for `COc1ccc(C2CN(C)Cc3cc(OCCCN4CCS(=O)(=O)CC4)ccc32)cc1` (stereo not shown) [Example 27, 7-[3-(1,1-Dioxo-1λ^6-thiomorpholin-4-yl)-propoxy]-4-(4-methoxy-phenyl)-2-methyl-1,2,3,4-tetrahydro-isoquinoline] are 6.98 and 8.52.
`COc1ccc(C2CN(C)Cc3cc(OC4CCN(CC#N)CC4)ccc32)cc1` (stereo not shown) [Example 242]: the pKi at human H3 receptor was 6.91; at Rat SERT it was 8.22.
Turning to `COc1ccc(C2CN(C)Cc3cc(OCCCN4CCN(c5ccccc5O)CC4)ccc32)cc1` (stereo not shown) [Example 203, 2-(4-{3-[4-(4-Methoxy-phenyl)-2-methyl-1,2,3,4-tetrahydro-isoquinolin-7-yloxy]-propyl}-piperazin-1-yl)-phenol], the figures for the pKi at human H3 receptor and on Rat SERT were 6.30 and 8.10, respectively.
In the case of `COc1ccc(C2CN(C)Cc3cc(OCCCN4CCN(C5CC5)CC4)ccc32)cc1` (stereo not shown) [Example 212, 7-[3-(4-Cyclopropyl-piperazin-1-yl)-propoxy]-4-(4-methoxy-phenyl)-2-methyl-1,2,3,4-tetrahydro-isoquinoline], the pKi on human H3 receptor was 7.37; at Rat SERT, 8.05.
For `CCN1CCC(COc2ccc3c(c2)CN(C)CC3c2ccc(OC)c(Cl)c2)CC1` (stereo not shown) [Example 107, 4-(3-Chloro-4-methoxy-phenyl)-7-(1-ethyl-piperidin-4-ylmethoxy)-2-methyl-1,2,3,4-tetrahydro-isoquinoline], the pKi on human H3 receptor was 8.30; at Rat SERT, 8.00.
In the case of `COc1ccc(C2CN(C)Cc3cc(OCCCN4CCN(C)CC4)ccc32)cc1` (stereo not shown) [Example 197, 4-(4-Methoxy-phenyl)-2-methyl-7-[3-(4-methyl-piperazin-1-yl)-propoxy]-1,2,3,4-tetrahydro-isoquinoline], the negative logarithm of the Ki (pKi) on human H3 receptor was 7.82; on Rat SERT it was 8.30.
The corresponding values for `CSc1ccc(C2CN(C)Cc3cc(OC4CCN(CC#N)CC4)ccc32)cc1` (stereo not shown) [Example 245, {4-[2-Methyl-4-(4-methylsulfanyl-phenyl)-1,2,3,4-tetrahydro-isoquinolin-7-yloxy]-piperidin-1-yl}-acetonitrile] are 6.47 and 8.15.
As to `COc1ccc(C2CN(C)Cc3cc(OCCC4CCCN4C)ccc32)cc1` (single isomer, unassigned) [Example 240A, 4-(4-Methoxy-phenyl)-2-methyl-7-[2-(1-methyl-pyrrolidin-2-yl)-ethoxy]-1,2,3,4-tetrahydro-isoquinoline], the results for the pKi at human H3 receptor and at Rat SERT were 8.52 and 8.70, respectively.
For `CSc1ccc(C2CN(C)Cc3cc(OCC4CN(CCF)C4)ccc32)cc1` (stereo not shown) [Example 239, 7-[1-(2-Fluoro-ethyl)-azetidin-3-ylmethoxy]-2-methyl-4-(4-methylsulfanyl-phenyl)-1,2,3,4-tetrahydro-isoquinoline] the same measures were 7.52 and 8.70.
Regarding `COc1ccc(C2CN(C)Cc3cc(OCC4CCN(C5CCC5)CC4)ccc32)c(F)c1` (stereo not shown) [Example 113, 7-(1-Cyclobutyl-piperidin-4-ylmethoxy)-4-(2-fluoro-4-methoxy-phenyl)-2-methyl-1,2,3,4-tetrahydro-isoquinoline], the pKi was 8.10 at human H3 receptor and 8.00 at Rat SERT.
The corresponding values for `COc1ccc(C2CN(C)Cc3cc(OC[C@@H]4CN(C5CC5)CCO4)ccc32)cc1` (single isomer, unassigned) [Example 260B, 7-(4-Cyclopropyl-morpholin-2S-ylmethoxy)-4-(4-methoxy-phenyl)-2-methyl-1,2,3,4-tetrahydro-isoquinoline] are 7.54 and 7.59.
With `COc1ccc(C2CN(C)Cc3cc(OCCCN4CCC(F)CC4)ccc32)cn1` (stereo not shown) [Example 193, 7-[3-(4-Fluoro-piperidin-1-yl)-propoxy]-4-(6-methoxy-pyridin-3-yl)-2-methyl-1,2,3,4-tetrahydro-isoquinoline], the pKi on human H3 receptor was 8.52; on Rat SERT it was 8.30.
With `CSc1ccc(C2CN(C)Cc3cc(OCCCN4CCCCC4)c(C)cc32)cc1` (stereo not shown) [Example 270, 2,6-Dimethyl-4-(4-methylsulfanyl-phenyl)-7-(3-piperidin-1-yl-propoxy)-1,2,3,4-tetrahydro-isoquinoline], the pKi on human H3 receptor was 8.22; on Rat SERT it was 7.74.
Take `COc1ccc(C2CN(C)Cc3cc(OC4CCNCC4)ccc32)c(F)c1` (stereo not shown) [Example 150, 4-(2-Fluoro-4-methoxy-phenyl)-2-methyl-7-(piperidin-4-yloxy)-1,2,3,4-tetrahydro-isoquinoline]: the results for the pKi on human H3 receptor and at Rat SERT were 6.76 and 8.15, respectively.

Usually pKi stands for the Ki on a negative log10 scale, so that one unit is a factor of ten.
